Patent US20250333406A1, “SULFONYL CYCLIC DERIVATIVES, AND COMPOSITIONS AND METHODS THEREOF” (Lysoway Therapeutics, Inc., priority 2023, published 2025)

Test system: TFEB
Assay: TFEB Nuclear Translocation Assay
Assay type: cell-based
Conditions: read-out: EC50 of TFEB activation

SMILES | EC50 [nM]
CC(C)S(=O)(=O)c1ccc(S(=O)(=O)n2nc(N3CCN(c4ncc(F)cn4)C[C@H]3C(F)(F)F)c3c(Cl)cccc32)cc1 (single isomer, unassigned) [Compound 69] | ≤ 1000
CC(C)S(=O)(=O)n1ccc(S(=O)(=O)n2nc(N3CCN(c4ncc(Cl)cn4)CC34CC4)c3c(Cl)cc(F)cc32)c1 [Compound 154, 4-chloro-3-(7-(5-chloropyrimidin-2-yl)-4,7-diazaspiro [2.5]octan-4-yl)-6-fluoro-1-((1-(isopropylsulfonyl)-1H-pyrrol-3-yl)sulfonyl)-1H-indazole] | ≤ 1000
CC(C)S(=O)(=O)n1ccc(S(=O)(=O)n2nc(N3CCN(c4ncc(F)cn4)C[C@@H]3C)c3c(Cl)cc(F)cc32)c1 [Compound 177, 4-chloro-6-fluoro-3-[(2S)-4-(5-fluoropyrimidin-2-yl)-2-methyl-piperazin-1-yl]-1-(1-isopropylsulfonylpyrrol-3-yl) sulfonyl-indazole] | ≤ 1000
CC(C)S(=O)(=O)c1ccc(S(=O)(=O)n2nc(N3CCN(c4ncc(F)cn4)CC34CC4)c3c(Cl)cc(F)cc32)cc1 [Compound 3, 4-chloro-6-fluoro-3-(7-(5-fluoropyrimidin-2-yl)-4,7-diazaspiro [2.5]octan-4-yl)-1-((4-(isopropylsulfonyl)phenyl)sulfonyl)-1H-indazole] | ≤ 1000
CCC(F)(F)c1ccc(S(=O)(=O)n2nc(N3CCN(c4ncc(F)cn4)CC34CC4)c3c(Cl)cccc32)cc1 [Compound 102, 4-chloro-1-[4-(1,1-difluoropropyl)phenyl]sulfonyl-3-[7-(5-fluoropyrimidin-2-yl)-4,7-diazaspiro [2.5]octan-4-yl]indazole] | ≤ 1000
CC(C)S(=O)(=O)c1ccc(S(=O)(=O)n2nc(N3CCC(F)(F)CC34CC4)c3c(Cl)cccc32)cc1 [Compound 53, 4-chloro-3-(7,7-difluoro-4-azaspiro [2.5]octan-4-yl)-1-(4-isopropylsulfonylphenyl) sulfonyl-indazole] | ≤ 1000
O=S(=O)(c1ccc(C(F)(F)C(F)F)cc1)n1nc(N2CCN(c3ncc(F)cn3)CC23CC3)c2c(Cl)cccc21 [Compound 95, 4-chloro-3-(7-(5-fluoropyrimidin-2-yl)-4,7-diazaspiro [2.5]octan-4-yl)-1-((4-(1,1,2,2-tetrafluoroethyl)phenyl)sulfonyl)-1H-indazole] | ≤ 1000
CC(C)(F)c1ccc(S(=O)(=O)n2nc(N3CCN(c4ncc(F)cn4)CC34CC4)c3c(Cl)cccc32)cc1 [Compound 97, 4-chloro-1-((4-(2-fluoropropan-2-yl)phenyl)sulfonyl)-3-(7-(5-fluoropyrimidin-2-yl)-4,7-diazaspiro [2.5]octan-4-yl)-1H-indazole] | ≤ 1000
CC(C)S(=O)(=O)n1ccc(S(=O)(=O)n2nc(N3CCN(c4ccncc4)CC34CC4)c3c(Cl)cc(F)cc32)c1 [Compound 176, 4-chloro-6-fluoro-1-(1-isopropylsulfonylpyrrol-3-yl) sulfonyl-3-[7-(4-pyridyl)-4,7-diazaspiro [2.5]octan-4-yl]indazole] | ≥ 10000
CC(C)S(=O)(=O)n1ccc(S(=O)(=O)n2nc(N3CCN(c4c(F)cccc4F)CC34CC4)c3c(Cl)cc(F)cc32)c1 [Compound 182, 4-chloro-3-(7-(2,6-difluorophenyl)-4,7-diazaspiro [2.5]octan-4-yl)-6-fluoro-1-((1-(isopropylsulfonyl)-1H-pyrrol-3-yl)sulfonyl)-1H-indazole] | ≤ 1000
CC(F)(F)c1ncc(S(=O)(=O)n2nc(N3CCN(c4ncc(F)cn4)CC34CC4)c3c(Cl)cccc32)cn1 [Compound 137, 4-chloro-1-[2-(1,1-difluoroethyl)pyrimidin-5-yl]sulfonyl-3-[7-(5-fluoropyrimidin-2-yl)-4,7-diazaspiro [2.5]octan-4-yl]indazole] | ≤ 1000
CC(C)S(=O)(=O)c1ccc(S(=O)(=O)n2nc(N3CCC(F)CC34CC4)c3c(Cl)cccc32)s1 (stereo not drawn) [Compound 11, 4-chloro-3-(7-fluoro-4-azaspiro [2.5]octan-4-yl)-1-[(5-isopropylsulfonyl-2-thienyl)sulfonyl]indazole] | ≤ 1000
